Assay results from patent US10435399B2, “HDAC6 inhibitory heterocyclic compound” (TAKEDA PHARMACEUTICAL COMPANY LIMITED, priority 2017, dated 2019).

Columns and labels:
[1] = test system: acetylated tubulin in brain (hippocampus); experiment: Increase in acetylated tubulin in brain (hippocampus ELISA); format: in vivo, C57BL/6J mouse; details: mouse hippocampus, oral 10 mg/kg, 4 h after administration, vs vehicle
Protocol: Increase in Acetylated Tubulin in Brain
A drug was suspended in 0.5% methyl cellulose to prepare a suspension for administration, having a concentration shown in Table 3. The suspension was orally administered into 8 to […] male C57BL/6J mouse, and after the passage of the time shown in Table 3, the brain was taken out, and hippocampus was obtained. The hippocampus was homogenized under RIPA extract (Wako) to which protease inhibitor (Thermo) and phosphatase inhibitor (Thermo) were added, and centrifuged in 15,000 g for 15 min to prepare a protein extract. The acetylated tubulin and total tubulin in the extract were detected by the following ELISA method. Tubulin antibody (Sigma) was immobilized on 96-well plate (Microlite2+, Thermo), and the plate was stored at 4° C. […] The plate was washed, HRP substrate was added thereto, and the luminescence was measured using a plate reader. The acetylated tubulin and total tubulin were quantified from logistics curve based on dilution series using the mouse hippocampus tissue extract, and the acetylated tubulin relative to total tubulin was calculated, and evaluated as an relative tubulin acetylation level. […] After F test for vehicle group and drug group, the significant difference between the two groups was analyzed by Student t-test or Welch test (indicated as * p<0.05, ** p<0.01). […]

[2] = test system: P301S mutant human tau (4R1N) Tg mouse; experiment: Cognitive improvement action in neurodegenerative disease model mouse (novel object recognition test); format: in vivo
Protocol: Cognitive Improvement Action in Neurodegenerative Disease Model Mouse
A drug was suspended in 0.5% methyl cellulose to prepare a suspension for administration. The suspension was repeatedly administered into six month-old male P301S mutant human tau (4R1N) Tg mouse once a day for three months, and novel object recognition test was performed by the following method. The test is comprised of memory acquisition trial of object on the first day, and memory retention trial of familiar object and novel object on the second day. Drug was administered into the mouse 1 hr before the trials on both days. For acquisition trial, The mouse was put in a test box (30 cm×30 cm×25 cm) in which two identical objects were placed, and contact frequency and contact duration with the objects for 5 min were measured under 50 lux. […] Next day, one of the objects was replaced with new object, and contact frequency and contact duration with each object for 5 min were measured. Novelty Discrimination Index (NDI) as an index of cognitive function was calculated by novel object contact […]/(novel object contact duration+familiar object contact duration)%. […] After F test for vehicle administration wild-type group and vehicle administration Tg group, the significant difference between the two groups was analyzed by Student t-test or Welch test (indicated as ** p<0.01). […]

O=C1c2cc(-c3nnc(C(F)F)o3)cnc2CN1[C@@H]1CCCC[C@H]1NC(=O)C(F)(F)C(F)(F)F [Example 489, N-((1R,2R)-2-(3-(5-(difluoromethyl)-1,3,4-oxadiazol-2-yl)-5-oxo-5,7-dihydro-6H-pyrrolo[3,4-b]pyridin-6-yl)cyclohexyl)-2,2,3,3,3-pentafluoropropanamide]
relative tubulin acetylation level (acetylated tubulin relative to total tubulin) [1]: increase in significant tubulin acetylation level was observed
Novelty Discrimination Index (NDI) ([2]; 1 mg/kg once a day for three months): significant improvement in NDI was observed
Novelty Discrimination Index (NDI) ([2]; 3 mg/kg once a day for three months): significant improvement in NDI was observed
